From patent US7049311B1, “Pyrrolbenzodiazepines” (Spirogen Limited, priority 1998, dated 2006)

Experiments:
Assay type in all cases: cell-based, human
A2780cisR [1] = assay: Cytotoxicity in cisplatin-resistant A2780cisR (Example 9); settings: for IC50: Homo sapiens, A2780cisR, 96 h
Description: Relative to the parental line, the A2780cisR subline is known to have elevated GSH levels, an increased level of repair of DNA-cisplatin adducts, and a decreased ability to uptake cisplatin (M. Smellie, et al., Br. J. Cancer, 1994, 70, 48).
The results, which were obtained by incubating the cells with the compounds for 96 hours at 37° C., and assessing the cell number using Sulforhodamine B, are presented in the table below: […]

A2780cisR [2] = assay: Ovarian carcinoma cytotoxicity assay; settings: Homo sapiens, A2780cisR, 96 h, read-out: IC50 A2780cisR
How it was run: (§1)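 Cells attached overnight, then read 96 hours later by sulphorhodamine B staining of TCA-fixed cells, with absorbance at 540 nm. IC50 taken from concentration versus % absorbance relative to untreated wells; cisR lines are cisplatin-resistant.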

A2780 = assay: Ovarian carcinoma cytotoxicity assay; settings: Homo sapiens, A2780, 96 h, read-out: IC50 A2780
How it was run: as §1

## C=C1C[C@H]2C=Nc3cc(OCCCOc4cc5c(cc4OC)C(=O)N4CC(=C)C[C@H]4C=N5)c(OC)cc3C(=O)N2C1 [UP2001 (80)]
A2780cisR [1]; A2780cisR cell line
  fold more potent than DSB-120: ~9,000 fold
A2780cisR [1]; read-out: IC50 A2780cisR
  IC50: 0.024 nM
A2780cisR [1]; read-out: IC50 A2780cis^a
  IC50: 0.024 nM
A2780cisR [2]
  IC50: 0.024 nM
A2780
  IC50: 0.023 nM
